# Experiments:
# HL-60 cells = assay: Cell viability assay (CellTiter-Glo); type: cell-based; conditions: Homo sapiens, 72 h incubation, 6-point serial dilution
# Method: HL-60 cells were seeded at a density of 7000 cells per well in 96-well culture plates (Corning 3903) with IMDM and treated with test compounds following a 6-point serial dilution. RPMI 1640 (0.1% DMSO) was used as control for each well. After 72 h incubation, cell viability was determined using the CellTiter-Glo assay kit (Promega, G9242) according to the manufacturer's instructions. The dose-response curves were determined and IC50 values were calculated using the GraphPad Prism software following a nonlinear regression method.
# GSPT1 protein = target: T1, GSPT1 protein (Homo sapiens, UniProt P15170+Q96SW2); assay: GSPT1 degradation assay (western blot) in HL-60 cells; type: cell-based; conditions: GSPT1 protein level, 2h incubation, western blot normalized to beta-Actin; for inhibition at 0.1 µM: 0.1 μM compound; for inhibition at 1 µM: 1 μM compound
# T1 construct: endogenous in cells; host or cells: HL-60 cells
# Method: HL-60 cells (4×10^^6 cells/well) were seeded in 6-well culture plate (Costar, 3516) and treated with a variety of concentrations of test compound. After 2h incubation, cells were collected and lysed. The protein concentration was determined by BCA protein assay kit from Thermo (23227). The GSPT1 protein level was determined by western blots, using GSPT1 polyclonal antibody. Proteins were loaded into each well of the pre-casting gels and subjected to electrophoretic separation by SDS-PAGE. The protein resolved by SDS-PAGE were transferred to PVDF, blocked by 5% skim milk and probed with anti-GSPT1 antibody (Proteintech, 10763-1-AP) or anti-β-actin antibody (CST, 3700S), using following standard western blotting procedure. Blots intensities were quantified using ImageJ software and the intensity of GSPT1 bands were normalized to beta-Actin bands, respectively. The GSPT1 degradation results were then calculated. Reported compound C84971 (see WO2021126974A1 and WO2021126973A1) was used as a reference.
# T1 sequence (P15170 whole entry): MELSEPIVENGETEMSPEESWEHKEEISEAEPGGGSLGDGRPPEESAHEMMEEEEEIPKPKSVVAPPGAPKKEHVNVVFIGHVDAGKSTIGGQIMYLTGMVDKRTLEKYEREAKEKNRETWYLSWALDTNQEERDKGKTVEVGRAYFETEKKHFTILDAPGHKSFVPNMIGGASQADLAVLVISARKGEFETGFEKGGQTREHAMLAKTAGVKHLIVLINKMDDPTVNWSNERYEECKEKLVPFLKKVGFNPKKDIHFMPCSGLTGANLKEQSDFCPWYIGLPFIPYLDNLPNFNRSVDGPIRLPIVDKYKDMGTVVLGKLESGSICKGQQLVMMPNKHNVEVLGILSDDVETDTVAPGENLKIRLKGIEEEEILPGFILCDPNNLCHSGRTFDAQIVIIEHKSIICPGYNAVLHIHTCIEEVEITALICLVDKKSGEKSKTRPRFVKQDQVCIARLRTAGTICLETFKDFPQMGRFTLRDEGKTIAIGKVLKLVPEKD
# T1 sequence (Q96SW2 whole entry): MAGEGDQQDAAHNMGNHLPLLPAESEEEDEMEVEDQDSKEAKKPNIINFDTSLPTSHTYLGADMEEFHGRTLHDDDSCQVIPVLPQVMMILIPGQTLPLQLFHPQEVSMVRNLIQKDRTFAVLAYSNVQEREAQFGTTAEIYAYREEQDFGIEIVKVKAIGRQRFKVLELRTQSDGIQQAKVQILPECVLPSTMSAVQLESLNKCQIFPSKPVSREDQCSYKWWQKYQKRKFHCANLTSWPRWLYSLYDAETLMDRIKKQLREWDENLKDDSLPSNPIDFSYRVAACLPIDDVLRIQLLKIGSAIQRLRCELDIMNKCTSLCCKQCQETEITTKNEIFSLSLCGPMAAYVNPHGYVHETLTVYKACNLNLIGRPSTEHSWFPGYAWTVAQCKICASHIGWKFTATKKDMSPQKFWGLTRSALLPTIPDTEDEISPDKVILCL
# T1 sequence (Q16531 whole entry partner): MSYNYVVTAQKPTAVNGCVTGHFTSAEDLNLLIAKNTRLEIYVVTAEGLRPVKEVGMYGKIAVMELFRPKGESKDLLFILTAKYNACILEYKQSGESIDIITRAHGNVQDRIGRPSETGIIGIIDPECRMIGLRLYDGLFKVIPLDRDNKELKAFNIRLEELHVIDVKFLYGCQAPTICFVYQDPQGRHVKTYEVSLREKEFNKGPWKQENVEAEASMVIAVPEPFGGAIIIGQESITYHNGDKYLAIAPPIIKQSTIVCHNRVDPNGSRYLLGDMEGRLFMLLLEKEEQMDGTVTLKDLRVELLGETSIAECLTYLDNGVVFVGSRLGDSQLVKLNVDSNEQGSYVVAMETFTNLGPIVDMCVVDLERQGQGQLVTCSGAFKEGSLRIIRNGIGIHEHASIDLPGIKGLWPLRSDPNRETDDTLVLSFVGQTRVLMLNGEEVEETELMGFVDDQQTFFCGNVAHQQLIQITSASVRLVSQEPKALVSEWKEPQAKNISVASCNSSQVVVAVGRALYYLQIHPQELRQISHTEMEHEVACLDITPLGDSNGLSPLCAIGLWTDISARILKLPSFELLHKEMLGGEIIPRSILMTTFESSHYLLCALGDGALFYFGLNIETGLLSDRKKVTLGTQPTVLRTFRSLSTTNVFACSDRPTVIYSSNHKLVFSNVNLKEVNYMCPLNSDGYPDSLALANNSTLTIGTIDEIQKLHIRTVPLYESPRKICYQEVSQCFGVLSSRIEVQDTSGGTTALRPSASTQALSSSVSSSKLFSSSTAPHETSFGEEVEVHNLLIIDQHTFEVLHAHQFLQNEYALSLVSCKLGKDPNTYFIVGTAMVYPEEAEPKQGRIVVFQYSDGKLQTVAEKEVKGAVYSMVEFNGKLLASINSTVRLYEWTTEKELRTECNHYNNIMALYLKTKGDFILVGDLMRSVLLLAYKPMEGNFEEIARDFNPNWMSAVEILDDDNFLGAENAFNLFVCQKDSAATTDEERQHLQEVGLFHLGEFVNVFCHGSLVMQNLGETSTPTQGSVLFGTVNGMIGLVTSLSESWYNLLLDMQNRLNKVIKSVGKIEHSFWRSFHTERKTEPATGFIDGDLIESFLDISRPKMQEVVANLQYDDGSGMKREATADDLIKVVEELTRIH
SMILES,IC50 (HL-60 cells) [nM],inhibition at 0.1 µM (GSPT1 protein) [%],inhibition at 1 µM (GSPT1 protein) [%]
"Nc1ccc(-c2cccc(N3CCCN(CC4CCN(c5ccc6c(c5)C(=O)N(C5CCC(=O)NC5=O)C6=O)CC4)C3=O)c2)c(Cl)n1 (stereo not drawn) [Compound 28, 5-[4-({3-[3-(6-amino-2-chloropyridin-3-yl)phenyl]-2-oxo-1,3-diazinan-1-yl}methyl)piperidin-1-yl]-2-(2,6-dioxopiperidin-3-yl)isoindole-1,3-dione]",51,77,78
"CCc1c[nH]c2ncc(-c3cccc(N4CCCN(CC5CCN(c6ccc7c(c6)C(=O)N(C6CCC(=O)NC6=O)C7=O)CC5)C4=O)c3)c(Cl)c12 (stereo not drawn) [Compound A, 5-(4-((3-(3-(4-chloro-3-ethyl-1H-pyrrolo[2,3-b]pyridin-5-yl)phenyl)-2-oxotetrahydropyrimidin-1(2H)-yl)methyl)piperidin-1-yl)-2-(2,6-dioxopiperidin-3-yl)isoindoline-1,3-dione]",10,85,> 95
"CCc1c[nH]c2ccc(-c3cccc(N4CCCN(CCC5CN(c6ccc7c(c6)C(=O)N(C6CCC(=O)NC6=O)C7=O)C5)C4=O)c3)nc12 (stereo not drawn) [Compound 27, 2-(2,6-dioxopiperidin-3-yl)-5-(3-{2-[3-(3-{3-ethyl-1H-pyrrolo[3,2-b]pyridin-5-yl}phenyl)-2-oxo-1,3-diazinan-1-yl]ethyl}azetidin-1-yl)isoindole-1,3-dione]",397,45,70
"Cc1nc2ncc(-c3cccc(N4CCCN(CCC5CN(c6ccc7c(c6)C(=O)N(C6CCC(=O)NC6=O)C7=O)C5)C4=O)c3)cc2o1 (stereo not drawn) [Compound 24, 2-(2,6-dioxopiperidin-3-yl)-5-(3-(2-(3-(3-(2-methyloxazolo[4,5-b]pyridin-6-yl)phenyl)-2-oxotetrahydropyrimidin-1(2H)-yl)ethyl)azetidin-1-yl)isoindoline-1,3-dione]",,26,29
"CN(C)C(=O)c1ccc(-c2cccc(N3CCCN(CC4CCN(c5ccc6c(c5)C(=O)N(C5CCC(=O)NC5=O)C6=O)CC4)C3=O)c2)c(Cl)c1 (stereo not drawn) [Compound 32, 3-chloro-4-{3-[3-({1-[2-(2,6-dioxopiperidin-3-yl)-1,3-dioxoisoindol-5-yl]piperidin-4-yl}methyl)-2-oxo-1,3-diazinan-1-yl]phenyl}-N,N-dimethylbenzamide]",,< 10,< 10
"CC(C)(C)N1CCCN(CC2CCN(c3ccc4c(c3)C(=O)N(C3CCC(=O)NC3=O)C4=O)CC2)C1=O (stereo not drawn) [Compound 7, 5-(4-((3-(tert-butyl)-2-oxotetrahydropyrimidin-1(2H)-yl)methyl)piperidin-1-yl)-2-(2,6-dioxopiperidin-3-yl)isoindoline-1,3-dione]",,0,10
"Cc1csc(N2CCCN(CC3CCN(c4ccc5c(c4)C(=O)N(C4CCC(=O)NC4=O)C5=O)CC3)C2=O)n1 (stereo not drawn) [Compound 18, 2-(2,6-dioxopiperidin-3-yl)-5-(4-{[3-(4-methyl-1,3-thiazol-2-yl)-2-oxo-1,3-diazinan-1-yl]methyl}piperidin-1-yl)isoindole-1,3-dione]",,32,36
"CS(=O)(=O)c1ccc(-c2cccc(N3CCCN(CC4CCN(c5ccc6c(c5)C(=O)N(C5CCC(=O)NC5=O)C6=O)CC4)C3=O)c2)c(Cl)c1 (stereo not drawn) [Compound 33, 5-[4-({3-[3-(2-chloro-4-methanesulfonylphenyl)phenyl]-2-oxo-1,3-diazinan-1-yl}methyl)piperidin-1-yl]-2-(2,6-dioxopiperidin-3-yl)isoindole-1,3-dione]",,< 10,15
"O=C1CCC(N2C(=O)c3ccc(N4CCC(CN5CCN(c6ccccc6)C5=O)CC4)cc3C2=O)C(=O)N1 (stereo not drawn) [Compound 2, 2-(2,6-dioxopiperidin-3-yl)-5-(4-((2-oxo-3-phenylimidazolidin-1-yl)methyl)piperidin-1-yl)isoindoline-1,3-dione]",,0,0
"O=C1CCC(N2C(=O)c3ccc(N4CCC(CN5CCCN(C6CCCCC6)C5=O)CC4)cc3C2=O)C(=O)N1 (stereo not drawn) [Compound 5, 5-(4-((3-cyclohexyl-2-oxotetrahydropyrimidin-1(2H)-yl)methyl)piperidin-1-yl)-2-(2,6-dioxopiperidin-3-yl) isoindoline-1,3-dione]",,17,7
"O=C1CCC(N2C(=O)c3ccc(N4CCC(CN5CCN(Cc6ccc(F)cc6)C5=O)CC4)cc3C2=O)C(=O)N1 (stereo not drawn) [Compound 17, 2-(2,6-dioxopiperidin-3-yl)-5-(4-((3-(4-fluorobenzyl)-2-oxoimidazolidin-1-yl)methyl)piperidin-1-yl)isoindoline-1,3-dione]",,36,22
"CCNc1ccc(-c2cccc(N3CCCN(CC4CCN(c5ccc6c(c5)C(=O)N(C5CCC(=O)NC5=O)C6=O)CC4)C3=O)c2)c(Cl)c1 (stereo not drawn) [Compound 30, 5-{4-[(3-{3-[2-chloro-4-(ethylamino)phenyl]phenyl}-2-oxo-1,3-diazinan-1-yl)methyl]piperidin-1-yl}-2-(2,6-dioxopiperidin-3-yl)isoindole-1,3-dione]",,37,45
"O=C1CCC(N2C(=O)c3ccc(N4CCC(CN5CCCN(Cc6ccc(F)cc6)C5=O)CC4)cc3C2=O)C(=O)N1 (stereo not drawn) [Compound 16, 2-(2,6-dioxopiperidin-3-yl)-5-(4-((3-(4-fluorobenzyl)-2-oxotetrahydropyrimidin-1(2H)-yl)methyl)piperidin-1-yl)isoindoline-1,3-dione]",,26,32
"CNC(=O)c1ccc(-c2cccc(N3CCCN(CC4CCN(c5ccc6c(c5)C(=O)N(C5CCC(=O)NC5=O)C6=O)CC4)C3=O)c2)c(Cl)c1 (stereo not drawn) [Compound 31, 3-chloro-4-{3-[3-({1-[2-(2,6-dioxopiperidin-3-yl)-1,3-dioxoisoindol-5-yl]piperidin-4-yl}methyl)-2-oxo-1,3-diazinan-1-yl]phenyl}-N-methylbenzamide]",,45,55
"O=C1CCC(N2C(=O)c3ccc(N4CCC(CN5CCCN(c6cccc(Cl)c6)C5=O)CC4)cc3C2=O)C(=O)N1 (stereo not drawn) [Compound 14, 5-(4-((3-(3-chlorophenyl)-2-oxotetrahydropyrimidin-1(2H)-yl)methyl)piperidin-1-yl)-2-(2,6-dioxopiperidin-3-yl)isoindoline-1,3-dione]",,0,0
"CCc1c[nH]c2ccc(-c3cc(N4CCCN(CC5CCN(c6ccc7c(c6)C(=O)N(C6CCC(=O)NC6=O)C7=O)CC5)C4=O)ccn3)c(Cl)c12 (stereo not drawn) [Compound 35, 5-(4-((3-(2-(4-chloro-3-ethyl-1H-indol-5-yl)pyridin-4-yl)-2-oxotetrahydropyrimidin-1(2H)-yl)methyl)piperidin-1-yl)-2-(2,6-dioxopiperidin-3-yl)isoindoline-1,3-dione]",,0,0
"O=C1CCC(N2C(=O)c3ccc(N4CCC(CN5CCCN(c6ccccn6)C5=O)CC4)cc3C2=O)C(=O)N1 (stereo not drawn) [Compound 4, 2-(2,6-dioxopiperidin-3-yl)-5-(4-{[2-oxo-3-(pyridin-2-yl)-1,3-diazinan-1-yl]methyl}piperidin-1-yl)isoindole-1,3-dione]",,0,0
"CCn1ncc2ccc(-c3cccc(N4CCCN(CC5CCN(c6ccc7c(c6)C(=O)N(C6CCC(=O)NC6=O)C7=O)CC5)C4=O)c3)c(Cl)c21 (stereo not drawn) [Compound 34, 5-(4-((3-(3-(7-chloro-1-ethyl-1H-indazol-6-yl)phenyl)-2-oxotetrahydropyrimidin-1(2H)-yl)methyl)piperidin-1-yl)-2-(2,6-dioxopiperidin-3-yl)isoindoline-1,3-dione]",,58,53
"O=C1CCC(c2ccc(N3CCC(CCN4CCCN(c5ccccc5)C4=O)CC3)cc2)C(=O)N1 (stereo not drawn) [Compound 20, 3-(4-(4-(2-(2-oxo-3-phenyltetrahydropyrimidin-1(2H)-yl)ethyl)piperidin-1-yl)phenyl)piperidine-2,6-dione]",,0,0
"O=C1CCC(N2C(=O)c3ccc(N4CC(CCN5CCCN(c6cccc(-c7ccn8ccnc8c7)c6)C5=O)C4)cc3C2=O)C(=O)N1 (stereo not drawn) [Compound 21, 2-(2,6-dioxopiperidin-3-yl)-5-(3-(2-(3-(3-(imidazo[1,2-a]pyridin-7-yl)phenyl)-2-oxotetrahydropyrimidin-1(2H)-yl)ethyl)azetidin-1-yl)isoindoline-1,3-dione]",,35,40
"O=C1CCC(c2ccc(N3CCC(CN4CCCN(c5ccccc5)C4=O)CC3)cc2)C(=O)N1 (stereo not drawn) [Compound 13, 3-(4-{4-[(2-oxo-3-phenyl-1,3-diazinan-1-yl)methyl]piperidin-1-yl}phenyl) piperidine-2,6-dione]",,0,0
